{
  "source": "patent US11590232B2",
  "about": "“Bioconjugates of neuropeptides derivatives” (CENTRE NATIONAL DE LA RECHERCHE SCIENTIFIQUE, priority 2018, dated 2023)",
  "key": {"[1]": {"experiment": "In vivo imaging biodistribution (IVIS Lumina) in mice with λ-carrageenan-induced paw inflammation", "set-up": "species or system Swiss mice", "conditions": "i.v. injection, λ-carrageenan administered mice", "experimental": "In parallel, control non-inflamed shaved mice (injected with 20 μL saline into the right hind paw, instead of λ-carrageenan), received also injection of fluorescent LENK-SQ NPs. The biodistribution of the NPs was recorded at 0.5, 2, 4, 6 and 24 h after excitation at 640 nm and emission in the 695-775 nm filter respectively, using IVIS Lumina LT series III system (Caliper, Life science). During imaging, the mice were kept on the imaging stage under anesthesia with 2% isoflurane gas in oxygen flow (1 L/min) and were imaged in ventral position. Images and measures of fluorescence signals were acquired and analyzed with Living Imaging®. To measure photon radiance, regions of interest (ROI, threshold of 35%) were selected on the paw of the mice and average radiant efficiency values were used for quantification. Threshold of ROI for the inflamed paw was then pasted on the non-inflamed paw to compare the radiance with the same region."}, "[2]": {"experiment": "Dynamic light scattering (DLS) measurement of LENK-SQ NPs: size, zeta potential", "format": "physicochemical", "conditions": "in 0.1 mM KCl", "experimental": "The mean particle size, polydispersity index (PDI) and zeta potential were primarily evaluated by DLS (Nano ZS, Malvern; 173° scattering angle at 25° C.).\nThe measurements were performed in triplicate following appropriate dilution of the nanoparticles in water (DLS) or in 0.1 mM KCl (zeta potential)."}, "[3]": {"conditions": "37° C.", "experimental": "In the case of LENK-SQ-Diox NPs, diluted serum (30% in 5% dextrose solution) was used for the release study. […] To quantify the residual LENK-SQ bioconjugate and the released LENK, the resulting supernatants (150 μL) were evaporated to dryness at 40° C. under nitrogen flow, and then solubilized in 150 μL of Milli-Q water."}, "[4]": {"system": "central or peripheral opioid receptors", "experiment": "Opioid receptor blockade with naloxone or naloxone methiodide before agonist, Hargreaves test", "format": "in vivo, Sprague-Dawley rats", "conditions": "for reduction of AUC value by NaI pre-treatment compared with agonist alone: NaI (naloxone, brain-permeant) 0.5 mg/kg s.c. 15 min before agonist; for reduction of AUC value by NaI-M pre-treatment compared with agonist alone: NaI-M (naloxone methiodide, brain-impermeant) 0.5 mg/kg s.c. 15 min before agonist"}, "[5]": {"system": "thermal hyperalgesia in λ-carrageenan-treated rats", "experiment": "Hargreaves test (thermal nociceptive test) in λ-carrageenan-induced inflammatory pain", "format": "in vivo, Sprague-Dawley rats"}, "[6]": {"conditions": "diluted mouse serum (30% in 5% dextrose solution)"}},
  "data": [
    {"molecule": "CCCCCCCCCCCCCCCCCCN1/C(=C/C=C/C=C/C2=[N+](CCCCCCCCCCCCCCCCCC)c3ccccc3C2(C)C)C(C)(C)c2ccccc21.[O-][Cl+3]([O-])([O-])[O-]", "note": "[DiD solution]", "values": [
      {"measurement": "accumulation of fluorescence in the inflamed paw", "setting": "[1]", "value": "no significant accumulation of fluorescence"}
    ]},
    {"molecule": "CC(C)=CCC/C(C)=C/CC/C(C)=C/CC/C=C(\\C)CC/C=C(\\C)CCC(=O)NC(Cc1ccc(O)cc1)C(=O)NCC(=O)NCC(=O)NC(Cc1ccccc1)C(=O)NC(CC(C)C)C(=O)O", "note": "(centres unmarked) [LENK-SQ-Am, Leu-enkephalin-squalene Bioconjugate with Amide Spacer]", "values": [
      {"measurement": "zeta potential (sign of charge) of NPs", "setting": "[2]", "value": "negative"},
      {"measurement": "time stable in serum without significant decrease of bioconjugate", "setting": "[3]; mouse serum", "value": "≥ 48", "unit": "h"},
      {"measurement": "reduction of AUC value by NaI pre-treatment compared with agonist alone", "setting": "[4]", "value": 73, "unit": "%"},
      {"measurement": "reduction of AUC value by NaI-M pre-treatment compared with agonist alone", "setting": "[4]", "value": 96, "unit": "%"}
    ]},
    {"molecule": "CC(C)=CCC/C(C)=C/CC/C(C)=C/CC/C=C(\\C)CC/C=C(\\C)CCCOC(=O)COCC(=O)NC(Cc1ccc(O)cc1)C(=O)NCC(=O)NCC(=O)NC(Cc1ccccc1)C(=O)NC(CC(C)C)C(=O)O", "note": "(centres unmarked) [LENK-SQ-Dig, Leu-enkephalin-squalene Bioconjugate with diglycolic Spacer]", "values": [
      {"measurement": "zeta potential (sign of charge) of NPs", "setting": "[2]", "value": "negative"},
      {"measurement": "release of free LENK peptide", "setting": "[3]; mouse serum", "value": "no presence of free peptide was detected"},
      {"measurement": "time of complete disappearance of the bioconjugate", "setting": "[3]; mouse serum", "value": 2, "unit": "h"},
      {"measurement": "time of decline of PWL down to baseline", "setting": "[5]; 20 mg/kg i.v., rats", "value": 220, "unit": "min"}
    ]},
    {"molecule": "CC(C)=CCC/C(C)=C/CC/C(C)=C/CC/C=C(\\C)CC/C=C(\\C)CCC(=O)OCOC(=O)C(CC(C)C)NC(=O)C(Cc1ccccc1)NC(=O)CNC(=O)CNC(=O)C(N)Cc1ccc(O)cc1", "note": "(centres unmarked) [LENK-SQ-Diox, Leu-Enkephalin-Squalene Bioconjugate with Dioxycarbonyl Spacer]", "values": [
      {"measurement": "zeta potential (sign of charge) of NPs", "setting": "[2]", "value": "net positive charge"},
      {"measurement": "release of the free LENK peptide", "setting": "[3]; [6]", "value": "progressively released the free LENK peptide"},
      {"measurement": "time till which the concentration of the bioconjugate decreased gradually", "setting": "[3]; [6]", "value": 7, "unit": "h"},
      {"measurement": "reduction of AUC value by NaI pre-treatment compared with agonist alone", "setting": "[4]", "value": 66, "unit": "%"},
      {"measurement": "reduction of AUC value by NaI-M pre-treatment compared with agonist alone", "setting": "[4]", "value": 81, "unit": "%"}
    ]},
    {"molecule": "CN1CC[C@]23c4c5ccc(O)c4O[C@H]2[C@@H](O)C=C[C@H]3[C@H]1C5", "note": "[morphine]", "values": [
      {"measurement": "paw withdrawal latency (PWL)", "setting": "[5]; 10 min post-injection, morphine 1 mg/kg, 3 h after λ-carrageenan, rats", "value": "12.87 ± 1.38", "unit": "s"},
      {"measurement": "time post-administration at which no longer significant anti-hyperalgesic effect was observed", "setting": "[5]; morphine 1 mg/kg, rats", "value": 100, "unit": "min"},
      {"measurement": "maximal PWL values compared with basal PWL of control naïve rats", "setting": "[5]; λ-carrageenan-treated rats", "value": "twice as high as those found in control naïve rats"}
    ]}
  ]
}
